We go through ten molecules from patent publication US20230242530A1, “8-(AZETIDIN-1-YL)-[1,2,4]TRIAZOLO[1,5-A]PYRIDINYL COMPOUNDS, COMPOSITIONS AND METHODS OF USE THEREOF” (Genentech, Inc., priority 2016, published 2023).

For experiment [1], the target named is T1, isolated recombinant JAK1 kinase domain (Homo sapiens, UniProt P23458).
T1 construct: isolated recombinant JAK1 and JAK2 kinase domain
In words: JAK enzyme assay, JAK1 kinase domain (Caliper LabChip). The conditions noted are these: 1.5 nM JAK1, ATP 25 μM, Morrison tight binding model. The class given is biochemical. In short, it runs like this:
(§1)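 Recombinant kinase domains phosphorylated a 5-carboxyfluorescein-labelled JAK3-derived peptide for 30 min at 22 °C, and the reaction was stopped with EDTA (50 mM final). Product fraction was measured by Caliper LabChip mobility shift. Ki came from Morrison tight-binding fits corrected for ATP competition (Ki=Ki,app/(1+[ATP]/Km,app)).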

In experiment [2] the target is T2, isolated recombinant JAK2 kinase domain (Homo sapiens, UniProt O60674).
T2 construct: isolated recombinant JAK1 and JAK2 kinase domain
T2 sequence (O60674 849-1124 limits assumed): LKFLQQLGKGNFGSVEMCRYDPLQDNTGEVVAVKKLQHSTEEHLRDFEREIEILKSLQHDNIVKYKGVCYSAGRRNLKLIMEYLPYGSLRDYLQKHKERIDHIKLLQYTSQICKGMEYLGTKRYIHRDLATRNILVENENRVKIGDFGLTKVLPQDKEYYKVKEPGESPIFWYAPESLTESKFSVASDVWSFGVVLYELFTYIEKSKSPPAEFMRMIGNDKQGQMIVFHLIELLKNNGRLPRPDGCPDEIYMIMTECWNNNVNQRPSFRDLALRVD
Kind of experiment: JAK enzyme assay, JAK2 kinase domain (Caliper LabChip). Format: biochemical. The note with it: 0.2 nM JAK2, ATP 25 μM, Morrison tight binding model. In short, it runs like this:
as §1

For experiment [3], the system named is JAK1-dependent STAT6 phosphorylation downstream of IL-13 stimulation in BEAS-2B cells. Kind of experiment: JAK1 pathway assay in cell lines: IL-13 p-STAT6 BEAS-2B. The class given is cell-based. The conditions noted are these: BEAS-2B human bronchial epithelial cells, 1 hr compound, IL-13 15 min, MSD readout. The essentials: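 BEAS-2B cells plated a day ahead in complete growth medium; compounds added 1 hr at 37 °C (0.2% DMSO final), then IL-13 at lot-specific EC90 for 15 min at 37 °C. Phospho-STAT6 in lysates measured by MSD; EC50 is 50% inhibition relative to DMSO control.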

T1 sequence (P23458 875-1153 limits assumed): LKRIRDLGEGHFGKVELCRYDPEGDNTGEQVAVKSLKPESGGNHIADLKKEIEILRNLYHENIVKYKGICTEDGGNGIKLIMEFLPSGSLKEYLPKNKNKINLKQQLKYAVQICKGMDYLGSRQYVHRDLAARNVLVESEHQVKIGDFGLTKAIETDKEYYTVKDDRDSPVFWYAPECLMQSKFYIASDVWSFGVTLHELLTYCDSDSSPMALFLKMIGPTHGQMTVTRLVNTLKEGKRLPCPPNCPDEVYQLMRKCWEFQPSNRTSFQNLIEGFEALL

Turning to `CCc1cnn(C2(CC#N)CN(c3cccn4nc(Nc5ccc(C(=O)N6CCC(N7CCOCC7)CC6)cc5)nc34)C2)c1` [Example 36, 2-[3-(4-ethylpyrazol-1-yl)-1-[2-[4-(4-morpholinopiperidine-1-carbonyl)anilino]-[1,2,4]triazolo[1,5-a]pyridin-8-yl]azetidin-3-yl]acetonitrile], the Ki in experiment [1] was found to be 0.4 nM; in experiment [2], 1.6 nM. The same molecule yielded an EC50 in experiment [3] of 52 nM.

On to `COc1ccc(CCC2(CC#N)CN(c3cccn4nc(Nc5cnn(CC(=O)N6CCN(C)CC6)c5)nc34)C2)cc1` [Example 117, 2-[3-[2-(4-methoxyphenyl)ethyl]-1-[2-[[1-[2-(4-methylpiperazin-1-yl)-2-oxo-ethyl]pyrazol-4-yl]amino]-[1,2,4]triazolo[1,5-a]pyridin-8-yl]azetidin-3-yl]acetonitrile], for which the results for the Ki in experiment [1] and in experiment [2] were 0.4 nM and 2.4 nM, respectively. This molecule also showed an EC50 in experiment [3] of 20 nM.

`CN1CCN(C(=O)Cn2cc(Nc3nc4c(N5CC(CC#N)(n6cc(F)cn6)C5)cccn4n3)cn2)CC1` [Example 19, 2-[3-(4-fluoropyrazol-1-yl)-1-[2-[[1-[2-(4-methylpiperazin-1-yl)-2-oxo-ethyl]pyrazol-4-yl]amino]-[1,2,4]triazolo[1,5-a]pyridin-8-yl]azetidin-3-yl]acetonitrile]: the figures for the Ki in experiment [1] and in experiment [2] were 4.4 nM and 4 nM, respectively. Also, the EC50 in experiment [3] turned out to be 255 nM.

As to `CN1CCN(C(=O)Cn2cc(Nc3nc4c(N5CC(CC#N)(n6cc(CCO)cn6)C5)cccn4n3)cn2)CC1` [Example 25, 2-[3-[4-(2-hydroxyethyl)pyrazol-1-yl]-1-[2-[[1-[2-(4-methylpiperazin-1-yl)-2-oxo-ethyl]pyrazol-4-yl]amino]-[1,2,4]triazolo[1,5-a]pyridin-8-yl]azetidin-3-yl]acetonitrile], the Ki in experiment [1] was 0.4 nM; in experiment [2], 2.3 nM. The molecule also gave an EC50 in experiment [3] of 137 nM.

With `Cc1ccccc1-c1cnn(C2(CC#N)CN(c3cccn4nc(Nc5cnn(CC(=O)N6CCC(N7CCOCC7)CC6)c5)nc34)C2)c1` [Example 123], the Ki in experiment [1] was 0.3 nM; in experiment [2] it was 1.3 nM. In experiment [3], this molecule yielded a 50% effective concentration (EC50) of 87 nM.

Consider `CCc1cnn(C2(CC#N)CN(c3cccn4nc(Nc5ccc(C(=O)NCc6ccc(C)nc6)cc5)nc34)C2)c1` [Example 64, 4-[[8-[3-(cyanomethyl)-3-(4-ethylpyrazol-1-yl)azetidin-1-yl]-[1,2,4]triazolo[1,5-a]pyridin-2-yl]amino]-N-[(6-methyl-3-pyridyl)methyl]benzamide], for which the Ki in experiment [1] was 0.3 nM; in experiment [2], 0.2 nM. In addition, the EC50 in experiment [3] came to 15 nM.

As for `CN(CC(C)(C)C#N)C1CCN(C(=O)Cn2cc(Nc3nc4c(N5CC(CC#N)(n6cc(C(F)(F)F)cn6)C5)cccn4n3)cn2)CC1` [Example 108, 3-[[1-[2-[4-[[8-[3-(cyanomethyl)-3-[4-(trifluoromethyl)pyrazol-1-yl]azetidin-1-yl]-[1,2,4]triazolo[1,5-a]pyridin-2-yl]amino]pyrazol-1-yl]acetyl]-4-piperidyl]-methyl-amino]-2,2-dimethyl-propanenitrile;formic acid], the values for the inhibition constant Ki in experiment [1] and in experiment [2] were 0.6 nM and 0.4 nM, respectively. It took 37 nM to reach a half-maximal effect in experiment [3] (EC50).

As for `CCc1cnn(C2(CC#N)CN(c3cccn4nc(Nc5ccc(C(=O)N6CC7(CCN(C)CC7)C6)cc5)nc34)C2)c1` [Example 85, 2-[3-(4-ethylpyrazol-1-yl)-1-[2-[4-(7-methyl-2,7-diazaspiro[3.5]nonane-2-carbonyl)anilino]-[1,2,4]triazolo[1,5-a]pyridin-8-yl]azetidin-3-yl]acetonitrile], the Ki in experiment [1] worked out at 1.1 nM; in experiment [2], 9.3 nM. In experiment [3], the EC50 was found to be 197 nM.

In the case of `CCc1cnn(C2(CC#N)CN(c3cccn4nc(Nc5cnn(CC(=O)N6CCN(CCNC(=O)CC78CC9CC(CC(C9)C7)C8)CC6)c5)nc34)C2)c1` [Example 58, 2-(l-adamantyl)-N-[2-[4-[2-[4-[[8-[3-(cyanomethyl)-3-(4-ethylpyrazol-1-yl)azetidin-1-yl]-[1,2,4]triazolo[1,5-a]pyridin-2-yl]amino]pyrazol-1-yl]acetyl]piperazin-1-yl]ethyl]acetamide], the results for the inhibition constant (Ki) in experiment [1] and in experiment [2] were 0.4 nM and 0.3 nM, respectively. Also, the EC50 in experiment [3] is 13 nM.

`CN1CCN(C(=O)Cc2ccc(Nc3nc4c(N5CC(CC#N)(n6cc(C(F)(F)F)cn6)C5)cccn4n3)cc2)CC1` [Example 116, formic acid;2-[1-[2-[4-[2-(4-methylpiperazin-1-yl)-2-oxo-ethyl]anilino]-[1,2,4]triazolo[1,5-a]pyridin-8-yl]-3-[4-(trifluoromethyl)pyrazol-1-yl]azetidin-3-yl]acetonitrile]: the Ki in experiment [1] amounted to 0.6 nM; in experiment [2], 4 nM. Besides, the EC50 in experiment [3] amounted to 90 nM.
